Laboratory results reported in patent US6914045B2, “Glycopeptide antibiotics” (Wyeth Holdings Corporation, priority 2001, dated 2005).

Legend:
Test in all cases: in vitro antibacterial evaluation, MIC by broth dilution
Assay type in all cases: cell-based
[1] = system: Escherichia coli; details: 18 hours at 35° C.
[2] = system: Enterococcus sp.; details: broth dilution, 18 hours at 35° C.
Outline: (§1)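 Following National Committee for Clinical Laboratory Standards recommendations (M7-A2), susceptibility was measured by dilution in Muller-Hinton II […]. Bacteria were seeded at 5×10^5 CFU/mL against compound concentrations from 64 down to 0.06 μg/mL.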

[3] = system: Staphylococcus sp.; details: broth dilution, 18 hours at 35° C.
Outline: as §1

[4] = system: Streptococcus sp.; details: broth dilution, 18 hours at 35° C.
Outline: as §1

CC(c1ccccc1)C1NC(=O)CNC(=O)C(CO)NC(=O)C(CC2CNC(=N)N2C2OC(CO)C(O)C(O)C2O)NC(=O)C(CC2CNC(=N)N2)NC(=O)C(Cc2ccc(OC3OC(CO)C(OC4OC(CO)C(O)C(O)C4OCc4ccc(OCc5ccccc5)cc4)C(O)C3O)cc2)NC1=O (centres unmarked) [Example 246c]
>128 µg/mL: MIC Escherichia coli (ATCC 25922) [1] | MIC Escherichia coli (GC 4559) [1] | MIC Enterococcus faecalis (ATCC 29212) [2] | MIC Enterococcus faecalis (GC 2242) [2] | MIC Enterococcus faecalis (GC 2691) [2] | MIC Enterococcus faecalis (GC 3059) [2] | MIC Enterococcus faecalis (GC 4552) [2] | MIC Enterococcus faecalis (GC 4554) [2] | MIC Enterococcus faecalis (GC 6189) [2] | MIC Enterococcus faecium (GC 2243) [2] | MIC Enterococcus faecium (GC 4556) [2] | MIC Enterococcus faecalis (ATCC 29212) ([2]; strain ATCC 29212) | MIC Enterococcus faecalis (GC 2242) ([2]; strain GC 2242) | MIC Enterococcus faecium (GC 2243) ([2]; strain GC 2243) | MIC Enterococcus faecalis (GC 2691) ([2]; strain GC 2691) | MIC Enterococcus faecalis (GC 3059) ([2]; strain GC 3059) | MIC Enterococcus faecalis (GC 4552) ([2]; strain GC 4552) | MIC Enterococcus faecalis (GC 4554) ([2]; strain GC 4554) | MIC Enterococcus faecium (GC 4556) ([2]; strain GC 4556) | MIC Enterococcus faecalis (GC 6189) ([2]; strain GC 6189) | MIC Coagulase Negative Staphylococcus (GC 4547) [3] | MIC Coagulase Negative Staphylococcus (GC 4548) [3] | MIC Coagulase Negative Staphylococcus (GC 4549) [3] | MIC Coagulase Negative Staphylococcus (GC 4551) [3] | MIC Coagulase Negative Staphylococcus (GC 6257) [3] | MIC Staphylococcus aureus (ATCC 29213) [3] | MIC Staphylococcus aureus (GC 1131) [3] | MIC Staphylococcus aureus (GC 3051) [3] | MIC Staphylococcus aureus (GC 3053) [3] | MIC Staphylococcus aureus (GC 4541) [3] | MIC Staphylococcus aureus (GC 4542) [3] | MIC Staphylococcus aureus (GC 4544) [3] | MIC Staphylococcus aureus (GC 4545) [3] | MIC Staphylococcus aureus-SMITH (GC 4543) [3] | MIC Staphylococcus haemolyticus (GC 4546) [3] | MIC Staphylococcus aureus (ATCC 29213) ([3]; strain ATCC 29213) | MIC Staphylococcus aureus (GC 1131) ([3]; strain GC 1131) | MIC Staphylococcus aureus (GC 3051) ([3]; strain GC 3051) | MIC Staphylococcus aureus (GC 3053) ([3]; strain GC 3053) | MIC Staphylococcus aureus (GC 4541) ([3]; strain GC 4541) | MIC Staphylococcus aureus (GC 4542) ([3]; strain GC 4542) | MIC Staphylococcus aureus-SMITH (GC 4543) ([3]; strain GC 4543) | MIC Staphylococcus aureus (GC 4544) ([3]; strain GC 4544) | MIC Staphylococcus aureus (GC 4545) ([3]; strain GC 4545) | MIC Staphylococcus haemolyticus (GC 4546) ([3]; strain GC 4546) | MIC Coagulase Negative Staphylococcus (GC 4547) ([3]; strain GC 4547) | MIC Coagulase Negative Staphylococcus (GC 4548) ([3]; strain GC 4548) | MIC Coagulase Negative Staphylococcus (GC 4549) ([3]; strain GC 4549) | MIC Coagulase Negative Staphylococcus (GC 4551) ([3]; strain GC 4551) | MIC Coagulase Negative Staphylococcus (GC 6257) ([3]; strain GC 6257) | MIC Streptococcus agalactiae (GC 4564) [4] | MIC Streptococcus pyogenes (GC 4563) [4] | MIC Streptococcus pyogenes (GC 4563) ([4]; strain GC 4563) | MIC Streptococcus agalactiae (GC 4564) ([4]; strain GC 4564)
32 µg/mL: MIC Escherichia coli (GC 4560) [1]
64 µg/mL: MIC Enterococcus avium (GC 4558) [2] | MIC Enterococcus avium (GC 4558) ([2]; strain GC 4558) | MIC Streptococcus pneumoniae (GC 1894) [4] | MIC Streptococcus pneumoniae (GC 1894) ([4]; strain GC 1894)
128 µg/mL: MIC Enterococcus faecalis (GC 4553) [2] | MIC Enterococcus faecium (GC 4557) [2] | MIC Enterococcus faecalis (GC 4553) ([2]; strain GC 4553) | MIC Enterococcus faecium (GC 4557) ([2]; strain GC 4557) | MIC Streptococcus pneumoniae (ATCC 6301) [4] | MIC Streptococcus pneumoniae (GC 4565) [4] | MIC Streptococcus pneumoniae (ATCC 6301) ([4]; strain ATCC 6301) | MIC Streptococcus pneumoniae (GC 4565) ([4]; strain GC 4565)

CC(c1ccccc1)C1NC(=O)CNC(=O)C(CO)NC(=O)C(C(O)C2CNC(=N)N2C2OC(CO)C(O)C(O)C2O)NC(=O)C(C(O)C2CNC(=N)N2)NC(=O)C(Cc2ccc(OC3OC(CO)C(OC4OC(COCC=Cc5ccc(N(C)C)cc5)C(O)C(O)C4O)C(O)C3O)cc2)NC1=O (centres unmarked) [Example 243]
64 µg/mL: MIC Escherichia coli (GC 4560) [1] | MIC Enterococcus faecalis (GC 2242) [2] | MIC Enterococcus faecalis (GC 4553) [2] | MIC Enterococcus faecalis (GC 6189) [2] | MIC Enterococcus faecium (GC 2243) [2] | MIC Enterococcus faecium (GC 2243) ([2]; strain GC 2243) | MIC Enterococcus faecalis (GC 4553) ([2]; strain GC 4553) | MIC Enterococcus faecalis (GC 6189) ([2]; strain GC 6189) | MIC Enterococcus faecalis (GC 2242) ([2]; inoculum 5×10^5 CFU/mL, strain GC 2242) | MIC Coagulase Negative Staphylococcus (GC 4547) [3] | MIC Coagulase Negative Staphylococcus (GC 4551) [3] | MIC Staphylococcus aureus (ATCC 29213) [3] | MIC Staphylococcus aureus (GC 1131) [3] | MIC Staphylococcus aureus (GC 3051) [3] | MIC Staphylococcus aureus (GC 3053) [3] | MIC Staphylococcus aureus (GC 4541) [3] | MIC Staphylococcus aureus (GC 4542) [3] | MIC Staphylococcus aureus (GC 4544) [3] | MIC Staphylococcus aureus (GC 4545) [3] | MIC Staphylococcus aureus-SMITH (GC 4543) [3] | MIC Staphylococcus haemolyticus (GC 4546) [3] | MIC Staphylococcus aureus (ATCC 29213) ([3]; strain ATCC 29213) | MIC Staphylococcus aureus (GC 1131) ([3]; strain GC 1131) | MIC Staphylococcus aureus (GC 3051) ([3]; strain GC 3051) | MIC Staphylococcus aureus (GC 3053) ([3]; strain GC 3053) | MIC Staphylococcus aureus (GC 4541) ([3]; strain GC 4541) | MIC Staphylococcus aureus (GC 4542) ([3]; strain GC 4542) | MIC Staphylococcus aureus-SMITH (GC 4543) ([3]; strain GC 4543) | MIC Staphylococcus aureus (GC 4544) ([3]; strain GC 4544) | MIC Staphylococcus aureus (GC 4545) ([3]; strain GC 4545) | MIC Staphylococcus haemolyticus (GC 4546) ([3]; strain GC 4546) | MIC Coagulase Negative Staphylococcus (GC 4547) ([3]; strain GC 4547) | MIC Coagulase Negative Staphylococcus (GC 4551) ([3]; strain GC 4551)
>64 µg/mL: MIC Escherichia coli (ATCC 25922) [1] | MIC Escherichia coli (GC 4559) [1] | MIC Enterococcus faecalis (ATCC 29212) [2] | MIC Enterococcus faecalis (GC 2691) [2] | MIC Enterococcus faecalis (GC 3059) [2] | MIC Enterococcus faecalis (GC 4552) [2] | MIC Enterococcus faecalis (GC 4554) [2] | MIC Enterococcus faecium (GC 4556) [2] | MIC Enterococcus faecalis (ATCC 29212) ([2]; strain ATCC 29212) | MIC Enterococcus faecalis (GC 4552) ([2]; strain GC 4552) | MIC Enterococcus faecalis (GC 4554) ([2]; strain GC 4554) | MIC Enterococcus faecium (GC 4556) ([2]; strain GC 4556) | MIC Enterococcus faecalis (GC 2691) ([2]; inoculum 5×10^5 CFU/mL, strain GC 2691) | MIC Enterococcus faecalis (GC 3059) ([2]; inoculum 5×10^5 CFU/mL, strain GC 3059)
32 µg/mL: MIC Enterococcus avium (GC 4558) [2] | MIC Enterococcus faecium (GC 4557) [2] | MIC Enterococcus faecium (GC 4557) ([2]; strain GC 4557) | MIC Enterococcus avium (GC 4558) ([2]; strain GC 4558) | MIC Coagulase Negative Staphylococcus (GC 4548) [3] | MIC Coagulase Negative Staphylococcus (GC 4549) [3] | MIC Coagulase Negative Staphylococcus (GC 6257) [3] | MIC Coagulase Negative Staphylococcus (GC 4548) ([3]; strain GC 4548) | MIC Coagulase Negative Staphylococcus (GC 4549) ([3]; strain GC 4549) | MIC Coagulase Negative Staphylococcus (GC 6257) ([3]; strain GC 6257) | MIC Streptococcus agalactiae (GC 4564) [4] | MIC Streptococcus pneumoniae (ATCC 6301) [4] | MIC Streptococcus pyogenes (GC 4563) [4] | MIC Streptococcus pneumoniae (ATCC 6301) ([4]; inoculum 5×10^5 CFU/mL, strain ATCC 6301) | MIC Streptococcus pyogenes (GC 4563) ([4]; inoculum 5×10^5 CFU/mL, strain GC 4563) | MIC Streptococcus agalactiae (GC 4564) ([4]; inoculum 5×10^5 CFU/mL, strain GC 4564)
16 µg/mL: MIC Streptococcus pneumoniae (GC 4565) [4] | MIC Streptococcus pneumoniae (GC 4565) ([4]; inoculum 5×10^5 CFU/mL, strain GC 4565)
8 µg/mL: MIC Streptococcus pneumoniae (GC 1894) [4] | MIC Streptococcus pneumoniae (GC 1894) ([4]; inoculum 5×10^5 CFU/mL, strain GC 1894)
